The source of these data is US8222260B2, “Substituted 6-anilinopurine derivatives as inhibitors of cytokinin oxidase/dehydrogenase and preparations containing these derivatives” (Univerzita Palackego V Olomouci, priority 2007, dated 2012).

Where two headings read alike, the source gives them in different places. Bounds are passed on as bounds.

The GI50 is the concentration giving 50% growth inhibition.

In data set [1] the test system is Rat C6 glioma (ATCC No. CCL107). The data set can be described thus: Anti-inflammatory activity: isoproterenol-induced cAMP synthesis (ELISA). The format is cell-based. Conditions: cAMP after 30 min, induced by (−)-isoproterenol. The protocol:
Anti-inflammatory activity of several of the substituted 6-anilinopurine derivatives of this invention was determined; kinetin was also evaluated as a control. Rat C6 glioma (ATCC No. CCL107) was cultivated in monolayer in serum-free chemically defined medium containing Ham's F10/minimal essential medium (1:1 v/v), 2 mM L-glutamine, 1% (v/v) minimal essential medium vitamins (100×), 1% (v/v) minimal essential medium nonessential amino acids (100×), 100 U/ml penicillin, […], and 30 nM sodium selenite. Incubation was performed at 37° C. in a 100% humidified atmosphere. The assays were performed in the logarithmic growth phase at a density of 2.5×10^5 cells/cm^2. Intracellular cAMP synthesis was induced by addition of 5 mM (−)-isoproterenol; various amounts of test compounds were added at the same time as the (−)-isoproterenol. After 30 min incubation, the cellular amount of cAMP was determined using ELISA (cAMP-enzyme immunoassay kit from Amersham). The I50 values were determined from the dose-response curve in duplicate.

Data set [2] has as its system Salmonella typhimurium TA98 and TA100. The data set can be described thus: Ames test. The data set is classed as cell-based. To be noted: 2.5 to 5000 μg/plate. As to the method:
Amest test was used in order to exclude mutagenic effect of 2-chloro-6-(4-hydroxyanilino)purine. Histidin auxotrophs of Salmonella typhimurium TA98 and TA100 were used as indicator strains and the test was carried out according to standard protocols (Ames et al., Mutation Research, 31, 347-364 (1975); Maron et al., Mutation Research, 113, 173-215 (1983)). Tested concentrations were as follows: 2.5, 5.0, 15, 50, 500, 1500, a 5000 μg/plate. The compound was not mutagenic even in the concentrations exceeding its solubility limit in the culture medium.
(The Ames test uses bacterial strains that need an amino acid and regain growth without it when mutated back.)

Data set [3] concerns Human diploid fibroblasts HCA. The data set can be described thus: Anti-aging activity: senescence-associated beta-galactosidase in human fibroblasts. The format is cell-based. As to the method: In this example, effects of the compounds of this invention on the activity of a senescence biomarker senescence-associated β-galactosidase was studied. Human diploid fibroblasts HCA of various passage levels were used for this purpose. The tested compounds were added to the medium at each passage. After the incubation period, cells were washed with PBS and fixed with 2% formaldehyde and 0.2% glutaraldehyde in PBS. After another wash with PBS, they were incubated with the staining solution comprising potassium ferricyanide (5 mM), potassium ferrocyanide (5 mM), MgCl2 (2 mM), X-gal (5-bromo-4-chloro-3-indolyl-β-D-galactopyranoside) (1 mg/ml), in citric/phosphate buffer (pH 6.0) at 37° C. (without CO2) for at least 1 hour. Following the incubation period, the numbers of cells expressing senescence-associated β-galactosidase (blue cells) were counted using light microscope.

Data set [4] concerns osteosarcoma cell line HOS. The data set can be described thus: Calcein AM cytotoxicity assay. The data set is classed as cell-based, human. To be noted: 72 hours. The text has this:
(§1) Absence of toxic effects against mammalian (especially human) cell lines in a wide concentration range is one of the requirements on compounds intended for use in agriculture and medicine. Because toxic compounds negatively influence metabolic processes in cells, many standard cytotoxicity assays are based on measurement of metabolisation rate of various artificial substrates. Resulting product is then quantified e.g. by means of spectrometry. The assays can be easily modified for use in 96-well plates. For evaluation of cytotoxic effect of compounds of this invention, a microtiter assay based on quantification of metabolisation of Calcein AM was used. The assay is widely used in drug screening programs and in chemosensitivity testing. In live cells, Calcein AM is enzymatically hydrolysed and accumulation of resulting calcein is manifested by green fluorescence.
(§2) Following human cell lines were used for routine screening of the compounds: T-lymphoblastic leukemia cell line CEM, promyelocytic leukemia cell line HL-60, erytroid leukemia cell line K-562, breast carcinoma cell line MCF-7, osteosarcoma cell line HOS and melanoma cell line G-361. Mouse cell lines B16-F10 (melanoma) and NIH-3T3 (fibroblasts) were used as well. The cells were maintained in Nunc/Corning 80 cm^2 plastic tissue culture flasks and cultured in cell culture medium (DMEM with 5 g/l glucose, 2 mM glutamine, 100 U/ml penicillin, 100 μg/ml streptomycin, 10% fetal calf serum and sodium bicarbonate).
(§3) The cell suspensions were prepared and diluted according to the particular cell type and the expected target cell density (2.500-30.000 cells per well based on cell growth characteristics) and pippetted (80 μl) into 96-well plates. Inoculates were allowed a pre-incubation period of 24 hours at 37° C. and 5% CO2 for stabilisation. Tested compound was added in total volume of 20 μl of water at time zero. Usually, test compound was evaluated at six 3-fold dilutions. In routine testing, the highest concentration tested was 166.6 μM. All drug concentrations were tested in triplicates. Incubations of cells with the test compounds lasted for 72 hours at 37° C., in 5% CO2 atmosphere and 100% humidity. At the end of incubation period Calcein AM in PBS was added into final concentration of 1 μg/ml. After another 1 hour of incubation fluorescence (FD) was measured with the Labsystem FIA Reader Fluoroscan Ascent (UK). Growth inhibition (GI) was estimated using the following equitation: GI=(mean FDdrug exposed wells−mean FDblank)/(mean FDcontrol wells−mean FDblank)×100%. The GI50 value, the drug concentration causing 50% reduction of Calcein AM conversion, was calculated from the obtained dose response curves.

For another data set, the system named is NIH-3T3 (fibroblasts). The data set can be described thus: Calcein AM cytotoxicity assay. The format is cell-based, Mouse.
From the text: as §1
(§4) Mouse cell lines B16-F10 (melanoma) and NIH-3T3 (fibroblasts) were used as well. The cells were maintained in Nunc/Corning 80 cm^2 plastic tissue culture flasks and cultured in cell culture medium (DMEM with 5 g/l glucose, 2 mM glutamine, 100 U/ml penicillin, 100 μg/ml streptomycin, 10% fetal calf serum and sodium bicarbonate).
as §3, with “In routine testing, the highest concentration tested was 166.6 μM.” left out, “FDblank)×100%.” for “FDblank)×100%. The GI50 value, the drug concentration causing 50% reduction of Calcein AM conversion, was calculated from the obtained dose response curves.”

In data set [5] the test system is CKX1 overproducing Arabidopsis seedlings. The data set can be described thus: CKX1 overproducing Arabidopsis seedlings grown in vitro on MS medium, phenotype reversion. The data set is classed as in vivo. Conditions: in vitro on MS medium containing 0.1 μM compound.
Data set [6] deals with promyelocytic leukemia cell line HL-60. The data set can be described thus: Calcein AM cytotoxicity assay. The format is cell-based, human. Conditions: read-out: GI50 HL60.
From the text: as §1, §4
as §3, with “In routine testing, the highest concentration tested was 166.6 μM.” left out, “FDblank)×100%.” for “FDblank)×100%. The GI50 value, the drug concentration causing 50% reduction of Calcein AM conversion, was calculated from the obtained dose response curves.”

For data set [7], the system named is T-lymphoblastic leukemia cell line CEM. The data set can be described thus: Calcein AM cytotoxicity assay. Conditions: 72 hours. The format is cell-based, human.
From the text: as §1, §4
as §3, with “In routine testing, the highest concentration tested was 166.6 μM.” left out, “FDblank)×100%.” for “FDblank)×100%. The GI50 value, the drug concentration causing 50% reduction of Calcein AM conversion, was calculated from the obtained dose response curves.”

Data set [8] deals with erytroid leukemia cell line K-562. The data set can be described thus: Calcein AM cytotoxicity assay. To be noted: 72 hours. The format is cell-based, human.
From the text: as §1, §2, §3

Another data set relates to melanoma cell line G-361. The data set can be described thus: Calcein AM cytotoxicity assay. The format is cell-based, human. Conditions: 72 hours.
From the text: as §1, §2, §3

The next data set relates to B16-F0. The data set can be described thus: Calcein AM cytotoxicity assay. The data set is classed as cell-based, Mouse. Conditions: 72 hours.
The subject of data set [9] is breast carcinoma cell line MCF-7. The data set can be described thus: Calcein AM cytotoxicity assay. Conditions: 72 hours, read-out: GI50 MCF7. The format is cell-based, human.
From the text: as §1, §4
as §3, with “In routine testing, the highest concentration tested was 166.6 μM.” left out, “FDblank)×100%.” for “FDblank)×100%. The GI50 value, the drug concentration causing 50% reduction of Calcein AM conversion, was calculated from the obtained dose response curves.”

Regarding `Oc1ccc(Nc2nc(Cl)nc3nc[nH]c23)cc1` [Compound 10, 2-chloro-6-(4-hydroxyanilino)purine], the IC50 in data set [1] (Rattus norvegicus, C6 glioma, 0.5 h, read-out: I50) stood at 13 µM. Also, in data set [1], the “Effect (anti-inflammatory activity)” value is given as “Inhibition”. Besides, the mutagenic effect entry in data set [2] was “not mutagenic”. Also, in [3] (passage 25, cells expressing senescence-associated beta-galactosidase), the “Senescent Cells (%) HCA passage 25” value is listed as 4%. Moreover, the “Senescent Cells (%) HCA passage 50” value in data set [3] (passage 50, cells expressing senescence-associated beta-galactosidase) came to 6%. The “Senescent Cells (%) HCA passage 80” value in data set [3] (passage 80, cells expressing senescence-associated beta-galactosidase) worked out at 22%.
`c1ccc(CNc2ncnc3nc[nH]c23)cc1` [benzylamino, 6-benzylaminopurine, reference compound]: the GI50 is over 167 µM in data set [4] (Homo sapiens); over 167 µM with NIH-3T3 (fibroblasts) (Mus musculus, NIH3T3, 72 hours); over 167 µM in [6] (Homo sapiens, HL-60, 72 hours); over 167 µM in [7] (Homo sapiens). Besides, the “reversion of WT phenotype” value in data set [5] is “appeared only when the compound 12 was present”.
For `Oc1cccc(CNc2ncnc3nc[nH]c23)c1` [meta-topolin, reference compound], the GI50 in data set [8] is 128 µM; with melanoma cell line G-361, over 167 µM; in [4], over 167 µM; in the data set on NIH-3T3 (fibroblasts) (72 hours), over 167 µM; in the data set with B16-F0, 90.6 µM; in [6] (72 hours) it was 79.2 µM. Also, the GI50 in data set [9] is over 167 µM; in data set [7], 90.1 µM.
Consider `Oc1ccccc1CNc1ncnc2nc[nH]c12` [ortho-topolin, reference compound], for which the GI50 is over 167 µM in data set [8]; 103 µM in the data set on melanoma cell line G-361; over 167 µM in [4]; over 167 µM in the data set with NIH-3T3 (fibroblasts) (72 hours); 150 µM in the data set with B16-F0; 78 µM in [6] (72 hours). Besides, the GI50 in data set [9] was over 167 µM; in [7], 69.2 µM.
